Experimental findings from patent US12318364B2, “Isoflavonoid compositions and methods for the treatment of cancer” (Aardvark Therapeutics, Inc., priority 2010, dated 2025) are described below.

Values after ≈ are worked out from the molar mass of the structure shown.

The series is described as follows: Solubility limit of compound d-4 in aqueous Captisol (SBE7-β-CD) solution. Particulars: at 25° C., 20% Captisol® in water. It is filed as physicochemical.

Consider `Oc1ccc([C@H]2c3ccc(O)cc3OC[C@H]2c2ccc(O)cc2)cc1` (relative stereo) [Compound d-4, d-cis-3-(4-hydroxyphenyl)-4-(4-hydroxyphenyl)chroman-7-ol], for which the solubility limit stood at 27.9 mg/mL (≈ 83.4 mM).
